Literature values as cited in patent publication US20170290285A1, “HIGH REBAUDIOSIDE-C PLANT VARIETAL AND COMPOSITIONS EXTRACTED THEREFROM WITH HIGH REBAUDIOSIDE-C AND TOTAL STEVIOL GLYCOSIDE CONTENT” (GLG Life Tech Corporation, priority 2014, published 2017).
Values belong to the compound of their own block, whether it stands above or below them.

What was measured:
[1] = for Relative sweetness: Table 1
[2] = heating at high temperature, cooking or barbecuing

Compound: Rubusoside
Relative sweetness [1]: 110

Compound: Rebaudioside C
sweetness, × of sugar ([1]; versus sugar, list b13-b15): 150-200 × of sugar

Solubility in water, %: 0.03%
Compound: C=C1C[C@@]23CC[C@H]4[C@@](C)(CCC[C@@]4(C)C(=O)[O-])[C@@H]2CC[C@]1(O[C@@H]1O[C@@H](CO)[C@@H](O)[C@H](O)[C@@H]1O[C@@H]1O[C@@H](CO)[C@@H](O)[C@H](O)[C@@H]1O)C3.[Na+] [Stevlolbioside]
Relative sweetness [1]: 90

Compound: C[C@H](CC[C@@H](O[C@@H]1O[C@H](CO[C@@H]2O[C@H](CO)[C@@H](O)[C@H](O)[C@H]2O)[C@@H](O)[C@H](O)[C@H]1O[C@@H]1O[C@H](CO)[C@@H](O)[C@H](O)[C@H]1O)C(C)(C)O)[C@H]1CC[C@@]2(C)[C@@H]3CC=C4[C@@H](CC[C@H](O[C@@H]5O[C@H](CO[C@@H]6O[C@H](CO)[C@@H](O)[C@H](O)[C@H]6O)[C@@H](O)[C@H](O)[C@H]5O)C4(C)C)[C@]3(C)[C@H](O)C[C@]12C [Mogroside V]
effect of heating on flavor [2]: does not affect the flavor
sweetness, times that of sugar ([1]; versus sugar, b159): about 300 times
